Source: patent US20230348424A1, “HETEROCYCLIC COMPOUNDS AND METHODS OF USE” (Schrödinger, Inc., priority 2022, published 2023)

Target: SOS1:KRAS (G12C) interaction (Homo sapiens (Human), UniProt Q07889)
Assay: SOS1 KRas(G12C) FRET Assay
Type: binding
Conditions: 0.5 nM His10-SOS1 (res. 564-1049), 2.5 nM GST-KRAS G12C (res. 1-169), 2 hrs at RT
Method: Inhibition of the SOS 1:KRAS interaction was measured using purified GST-tagged KRAS (res. 1-169, G12C, purified based on Hillig, et al., Proc Natl Acad Sci USA (2019); 116(7):2551-2560) and recombinant His10-SOS1 (res. 564-1049; purified based on Hillig, et al.). The final assay was performed at 20 uL with 0.5 nM SOS1 protein and 2.5 nM KRAS protein in a buffer of PBS, 0.1% BSA, 5 mM MgCh, 0.0025% Igepal, 100 mM KF, 5 mM DTT in a white 384 square well OptiPlate (PerkinElmer, Cat. 6007290). A 2x KRAS working solution was prepared in an assay buffer containing 5 nM GST-KRAS G12C and 2 nM anti-GST-Eu(K) (Cisbio, Cat. 61GSTKLA) and pre-incubated for 15 minutes at 25° C. […] The final DMSO concentration is 0.5%. Plates were incubated at RT for 2 hrs before the FRET signal was measured using Envision at emission 665 nm and 615 nm. FRET signal was converted to percentage of protein-protein interaction using the following equation:
• C: signal with compound treatment • P: signal for positive control (DMSO) • N: signal for negative control (no SOS1 added)
IC50 and Hill coefficients were obtained using Graph Pad Prism (Graph Pad software, Inc, USA) with non-linear regression analysis.

Chain of SOS1:KRAS (G12C) interaction (Q07889 564-1049, stated change not applied): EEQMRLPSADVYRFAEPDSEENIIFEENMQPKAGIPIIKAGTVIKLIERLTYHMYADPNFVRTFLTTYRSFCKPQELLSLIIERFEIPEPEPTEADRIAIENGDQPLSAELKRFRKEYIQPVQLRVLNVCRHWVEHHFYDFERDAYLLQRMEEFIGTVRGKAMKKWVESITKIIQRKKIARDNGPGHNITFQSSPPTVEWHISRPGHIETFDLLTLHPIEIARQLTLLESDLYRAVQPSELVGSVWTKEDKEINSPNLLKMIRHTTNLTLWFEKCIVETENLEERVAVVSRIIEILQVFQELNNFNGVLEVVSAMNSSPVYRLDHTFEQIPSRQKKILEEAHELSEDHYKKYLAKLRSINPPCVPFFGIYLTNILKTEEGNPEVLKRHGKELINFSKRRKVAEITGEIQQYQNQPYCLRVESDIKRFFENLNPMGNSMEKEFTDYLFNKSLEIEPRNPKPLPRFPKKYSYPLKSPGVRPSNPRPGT

Molecule Cc1c([C@@H](C)NC(=O)c2cn(C3CCOCC3)c(=O)cc2NCC23CCCN2CCC3)cccc1C(F)(F)F [Example 11, (R)-N-(1-(2-methyl-3-(trifluoromethyl)phenyl)ethyl)-6-oxo-4-(((tetrahydro-1H-pyrrolizin-7a(5H)-yl)methyl)amino)-1-(tetrahydro-2H-pyran-4-yl)-1,6-dihydropyridine-3-carboxamide] has an IC50 of 37.6 nM.

Work on CC(=O)N1CC[C@](C)(n2cc(C(=O)N[C@H](C)c3cccc(C(F)F)c3F)c(NC3CCN(C)CC3)cc2=O)C1 (single isomer, unassigned) [Example 265] yielded an IC50 of 27.8 nM.

C[C@@H](NC(=O)c1cn([C@H]2CC23CC3)c(=O)cc1N[C@H]1[C@@H]2CN(C)C[C@@H]21)c1cccc(C(F)(F)F)c1F (single isomer, unassigned) [Example 219] was tested, and the IC50 was 26.9 nM.

CC(NC(=O)c1cn(C2(C(F)F)CC2)c(=O)cc1NC1CCN(C)CC1)c1cccc(C(F)(F)F)c1Cl (stereo not drawn) [Example 170, N-(1-(2-chloro-3-(trifluoromethyl)phenyl)ethyl)-1-(1-(difluoromethyl)cyclopropyl)-4-((1-methylpiperidin-4-yl)amino)-6-oxo-1,6-dihydropyridine-3-carboxamide] showed an IC50 of 40.9 nM.

C[C@@H](NC(=O)c1cn(C2(C(F)(F)F)CCCC2)c(=O)cc1NC1CCN(C)CC1)c1cccc(C(F)F)c1F [Example 223, (R)-N-(1-(3-(difluoromethyl)-2-fluorophenyl)ethyl)-4-((1-methylpiperidin-4-yl)amino)-6-oxo-1-(1-(trifluoromethyl)cyclopentyl)-1,6-dihydropyridine-3-carboxamide] gave an IC50 of 14.1 nM.

With CN1C[C@@H]2[C@H](C1)[C@H]2Nc1cc(=O)n(C2(C(F)F)CC2)cc1C(=O)N[C@@H](c1cccc(C(F)F)c1F)C(F)(F)F (single isomer, unassigned) [Example 275] the IC50 was 361 nM.

C[C@@H](NC(=O)c1cn(C2CC23CCC(F)(F)CC3)c(=O)cc1N[C@H]1[C@@H]2CN(C)C[C@@H]21)c1cccc(C(F)F)c1F (stereo partly drawn) [Example 242, N-((R)-1-(3-(difluoromethyl)-2-fluorophenyl)ethyl)-1-(6,6-difluorospiro[2.5]octan-1-yl)-4-(((1R,5S,6s)-3-methyl-3-azabicyclo[3.1.0]hexan-6-yl)amino)-6-oxo-1,6-dihydropyridine-3-carboxamide] was tested, and the IC50 was 11.6 nM.

In the case of C[C@@H](NC(=O)c1cn(C23CC(C2)C3)c(=O)cc1N[C@H]1[C@@H]2CN(C)C[C@@H]21)c1cccc(OC(F)F)c1Cl [Example 180, 1-(bicyclo[1.1.1]pentan-1-yl)-N-((R)-1-(2-chloro-3-(difluoromethoxy)phenyl)ethyl)-4-(((1R,5S,6s)-3-methyl-3-azabicyclo[3.1.0]hexan-6-yl)amino)-6-oxo-1,6-dihydropyridine-3-carboxamide], the IC50 is reported as 113 nM.

In the case of C[C@@H](NC(=O)c1cn(C23CC(C2)C3)c(=O)cc1N[C@H]1[C@@H]2CN(C)C[C@@H]21)c1cccc(S(F)(F)(F)(F)F)c1 [Example 161, 1-(bicyclo[1.1.1]pentan-1-yl)-4-(((1R,5S,6s)-3-methyl-3-azabicyclo[3 .1.0]hexan-6-yl)amino)-6-oxo-N-((R)-1-(3-(pentafluoro-16-sulfaneyl)phenyl)ethyl)-1,6-dihydropyridine-3-carboxamide], the IC50 is reported as 24 nM.

COc1ccc(C(C)NC(=O)c2cn(C3(C(F)F)CC3)c(=O)cc2NC2CCN(C)CC2)cc1C(F)(F)F (stereo not drawn) [Example 173, 1-(1-(difluoromethyl)cyclopropyl)-N-(1-(4-methoxy-3-(trifluoromethyl)phenyl)ethyl)-4-((1-methylpiperidin-4-yl)amino)-6-oxo-1,6-dihydropyridine-3-carboxamide] showed an IC50 of 1180 nM.

Cc1c([C@@H](C)NC(=O)c2cn(C3CCOCC3)c(=O)cc2NC2CCN(C)CC2(F)F)cccc1C(F)(F)F (stereo partly drawn) [Example 283, 4-((3,3-difluoro-1-methylpiperidin-4-yl)amino)-N-((R)-1-(2-methyl-3-(trifluoromethyl)phenyl)ethyl)-6-oxo-1-(tetrahydro-2H-pyran-4-yl)-1,6-dihydropyridine-3-carboxamide] gave an IC50 of 137 nM.

Cc1c([C@@H](C)NC(=O)c2cn(C3CCOCC3)c(=O)cc2N[C@H]2CCCCN(C)C2)cccc1C(F)(F)F [Example 35, N-((R)-1-(2-methyl-3-(trifluoromethyl)phenyl)ethyl)-4-(((S)-1-methylazepan-3-yl)amino)-6-oxo-1-(tetrahydro-2H-pyran-4-yl)-1,6-dihydropyridine-3-carboxamide] was tested, and the IC50 was 44 nM.

With Cc1c([C@@H](C)NC(=O)c2cn(C3CCOCC3)c(=O)cc2N[C@@H]2CC[C@@]23CCCN(C)C3)cccc1C(F)(F)F (single isomer, unassigned) [Example 299] the IC50 was 51.3 nM.

In the case of C[C@@H](NC(=O)c1cn(C2(C(F)F)CC2)c(=O)cc1N[C@@H]1C[C@H]2C[C@@H]1CN2C)c1cccc(C(F)F)c1F (single isomer, unassigned) [Example 239], the IC50 is reported as 21.5 nM.

Work on Cc1c([C@@H](C)NC(=O)c2cn(C3CCOCC3)c(=O)c(Br)c2NC2CCN(C)CC2)cccc1C(F)(F)F [Example 17, (R)-5-bromo-N-(1-(2-methyl-3-(trifluoromethyl)phenyl)ethyl)-4-((1-methylpiperidin-4-yl)amino)-6-oxo-1-(tetrahydro-2H-pyran-4-yl)-1,6-dihydropyridine-3-carboxamide] yielded an IC50 of 717 nM.

For C[C@@H](NC(=O)c1cn(C2(C(F)F)CC2)c(=O)cc1NC1CCN(C)CC1)c1ccc(F)c(C(F)(F)F)c1 (single isomer, unassigned) [Example 167], the IC50 was over 10000 nM.

Work on C[C@@H](NC(=O)c1cn(C2(C(F)F)CC2)c(=O)cc1N[C@@H]1CCN2CCC[C@@H]2C1)c1cccc(C(F)F)c1F (single isomer, unassigned) [Example 306] yielded an IC50 of 41.7 nM.

With Cc1c([C@@H](C)NC(=O)c2cn(C3CCOCC3)c(=O)cc2SC2CCNCC2)cccc1C(F)(F)F [Example 157, (R)-N-(1-(2-methyl-3-(trifluoromethyl)phenyl)ethyl)-6-oxo-4-(piperidin-4-ylthio)-1-(tetrahydro-2H-pyran-4-yl)-1,6-dihydropyridine-3-carboxamide] the IC50 was 218 nM.

Cc1c([C@@H](C)NC(=O)c2cn(C3CCOCC3)c(=O)cc2NC2[C@@H]3C[C@H]2CN(C)C3)cccc1C(F)(F)F (single isomer, unassigned) [Example 22] gave an IC50 of 25.9 nM.

C[C@@H](NC(=O)c1cn([C@@H]2CC23CC3)c(=O)cc1N[C@H]1[C@@H]2CN(C)C[C@@H]21)c1cccc(C(F)(F)F)c1F (single isomer, unassigned) [Example 218] was tested, and the IC50 was 15.8 nM.

With C[C@@H](NC(=O)c1cn(C2(C(F)F)CC2)c(=O)cc1NC1CCN(C)CC1)c1cccc2c1OCC2(F)F [Example 53, (R)-N-(1-(3,3-difluoro-2,3-dihydrobenzofuran-7-yl)ethyl)-1-(1-(difluoromethyl)cyclopropyl)-4-((1-methylpiperidin-4-yl)amino)-6-oxo-1,6-dihydropyridine-3-carboxamide] the IC50 was 15.6 nM.

Work on CCC12CC(n3cc(C(=O)N[C@H](C)c4cccc(C(F)F)c4F)c(NC4[C@H]5CN(C)C[C@@H]45)cc3=O)(C1)C2 (stereo partly drawn) [Example 313, N-((R)-1-(3-(difluoromethyl)-2-fluorophenyl)ethyl)-1-(3-ethylbicyclo[1.1.1]pentan-1-yl)-4-(((1R,5S,6s)-3-methyl-3-azabicyclo[3.1.0]hexan-6-yl)amino)-6-oxo-1,6-dihydropyridine-3-carboxamide] yielded an IC50 of 10.5 nM.

In the case of Cc1c([C@@H](C)NC(=O)c2cn(C3CCOCC3)c(=O)cc2NC2CCNCC2)cccc1C(F)(F)F [Example 282, (R)-N-(1-(2-methyl-3-(trifluoromethyl)phenyl)ethyl)-6-oxo-4-(piperidin-4-ylamino)-1-(tetrahydro-2H-pyran-4-yl)-1,6-dihydropyridine-3-carboxamide], the IC50 is reported as 34.4 nM.

Molecule Cc1c([C@@H](C)NC(=O)c2cn(C3CCOCC3)c(=O)cc2N[C@H]2C[C@@H](N(C)C)C2)cccc1C(F)(F)F [Example 27] has an IC50 of 21.8 nM.

C[C@@H](NC(=O)c1cn([C@@H]2CCC2(F)F)c(=O)cc1N[C@@H]1[C@@H]2CC[C@H]1CN(C)C2)c1cccc(C(F)F)c1F [Example 212, 1-((R)-2,2-difluorocyclobutyl)-N-((R)-1-(3-(difluoromethyl)-2-fluorophenyl)ethyl)-4-(((1R,5S,8s)-3-methyl-3-azabicyclo[3.2.1]octan-8-yl)amino)-6-oxo-1,6-dihydropyridine-3-carboxamide] showed an IC50 of 38.2 nM.

In the case of C[C@@H](NC(=O)c1cn(C2(C(F)F)CC2)c(=O)cc1N[C@@H]1[C@@H]2CC[C@H]1CN(C)C2)c1cccc(C(F)F)c1F [Example 294, N-((R)-1-(3-(difluoromethyl)-2-fluorophenyl)ethyl)-1-(1-(difluoromethyl)cyclopropyl)-4-(((1R,5S,8s)-3-(methyl-d3)-3-azabicyclo[3.2.1]octan-8-yl)amino)-6-oxo-1,6-dihydropyridine-3-carboxamide], the IC50 is reported as 53.4 nM.

In the case of C[C@@H](NC(=O)c1cn(C2CC(F)(F)C2)c(=O)cc1N[C@@H]1[C@@H]2CC[C@H]1CN(C)C2)c1cccc(C(F)F)c1F (single isomer, unassigned) [Example 259], the IC50 is reported as 10.4 nM.
